Assays:
Format in all cases: in vivo
WOK.W rat [1] = test: Feeding trial in male WOK.W rats: body mass, BMI, pararenal adipose tissue; settings: 16 weeks old, after 12 weeks supplementation via drinking water, mean ± SEM
Description: (§1) Both pharmacological and nutrition-induced intervention trials on patients with an increased triglyceride level are above all time consuming, in order to detect changes of the metabolism, and require a high degree of discipline and motivation of the test persons or patients taking part in the studies. In part, these disadvantages can be lessened or eliminated by animal experiments, under the precondition that equivalent animal models are available. […] The specific properties of WOK.W rats are described, e.g., in: • P. Kovacs et al., Ann. N.Y. Acad. Sci., 1997, 827, 94-99; • P. Kovacs et al., Biochem. Biophsy. Res. Commun., 2000, 660-665; • J. van den Brandt et al., Int. J. Obesity, 2000, 24, 1618-1622; • J. van den Brandt et al., Metabolism 49, 2000, 1140-1144.
31 male WOK.W rats (from 8 litters) were divided, at an age of 4 weeks, into 4 groups, such that one sibling was represented in each group. Group 1 (n=8 animals) was fed and watered ad libitum and served as an untreated control group. Group 2 (n=7 animals) received drinking water to which had been added whey permeate (25 g sweet whey permeate/1000 ml drinking water), a daily water requirement of 20 ml on average being assumed as the basis of the calculation. Group 3 (n=8 animals) received drinking water to which had been added calcium L-lactate (5,6 g calcium L-lactate/1000 ml drinking water), and group 4 (n=8 animals) received whey permeate and calcium L-lactate in identical concentrations. The treatment trial began at an age of 4 weeks, i.e. before the development of the most important symptoms of the metabolic syndrome, and continued for 12 weeks, until an age of 16 weeks.
(§2) Body weight, body length (for the calculation of the mody mass index, BMI), plasma glucose, and serum triglycerides were recorded every 2 weeks. […]
(§3) The results are represented as mean values ±SEM and the statistical significance was calculated using Student's t-test.

WOK.W rat [2] = test: Feeding trial in male WOK.W rats: plasma glucose; settings: 16 weeks old, after 12 weeks supplementation via drinking water, mean ± SEM, pathological threshold >8.4 mmol/l
Description: as §1, with “1140-1144. […]” for “1140-1144.”
as §2
(§4) Plasma glucose was measured enzymatically using a glucose analyzer. Lipid metabolism parameters were determined enzymatically with an automated analyzer for clinical chemistry, with kits (Boehringer Mannheim: triglycerides with TG GPO-PAP), according to the supplied instruction manuals. […]
as §3

WOK.W rat [3] = test: Feeding trial in male WOK.W rats: serum triglycerides; settings: 16 weeks old, after 12 weeks supplementation via drinking water, mean ± SEM, pathological threshold >2.3 mmol/l, a: P < 0.01
Description: as §1, with “1140-1144. […]” for “1140-1144.”
as §2, §4, §3

C[C@H](O)C(=O)[O-].C[C@H](O)C(=O)[O-].[Ca+2] [Calcium lactate, calcium L-lactate]
BMI (WOK.W rat [1]): 0.77 ± 0.01 g/cm^2 | Body mass (WOK.W rat [1]): 394.3 ± 10.6 G | Adipose tissue (WOK.W rat [1]; pararenal adipose tissue): 10.01 ± 0.71 G | Blood sugar (WOK.W rat [2]): 6.10 ± 0.21 mmol/L | Triglyceride (WOK.W rat [3]): 3.88 ± 0.22 mmol/L
